Assay [1] has as its system guinea pig hearts, isolated and perfused in vitro. The experiment in a line: Coronary flow in isolated guinea pig hearts perfused in a Langendorff apparatus. Here is the method: (§1) 1-a The coronary system was deemed a suitable model for studying the influence of RLX on dilation of blood vessels. Rat and guinea pig hearts, isolated and perfused in vitro in a Langendorff apparatus, were used to evaluate whether RLX causes changes in the coronary flow. After 30 minutes stabilization, in some experiments RLX (30 ng/ml) was added to the perfusion fluid and perfusion lasted for 20 minutes. In other experiments,RLX (30 ng/ml) was injected as a bolus into the aortic cannula. The perfusates were collected and the coronary flow determined. […] The percentage of basal flow variation is depicted versus time. In these diagrams (as well as in the next ones) values are expressed as mean ± SE (standard error). Statistic analyses were done calculating the Student's test (P), whose value is shown in the diagrams.
To clarify the mechanisms of action of RLX on dilation of coronary vessels, nitric oxide (NO) production and histamine release were assayed in the perfused guinea pig hearts. NO, which is known to be a powerful vasodilatory agent, was measured by determination of nitrites (stable end-products of NO metabolism) in the perfusates. […]

In assay [2] the test system is isolated serosal rat and guinea pig MCs and rat mesenteric MCs. Description: Mast cell histamine release, degranulation and intracellular Ca2+. Format: cell-based. Particulars: for calcium-ionophore-induced and anaphylactic histamine release: mast cells stimulated by ionophore or sensitized by allergen. An excerpt: 1-c Mast cells (MCs) are known to produce and release vasoactive substances. It has therefore been investigated whether RLX also exerts its vasodilatory action by influencing MC function. […] This effect is mediated by a stimulation of NO production. In fact, the RLX-induced depression of histamine release evoked by calcium ionophore was prevented by MeArg and potentiated by SOD. Moreover, RLX blunted the rise in the intracellular Ca^2+ levels evoked by calcium ionophore in a concentration-related fashion (41% decrease with 10 ng/mL RLX and 97% decrease with 100 ng/mL RLX). From these findings, it emerges that the vasodilatory action of RLX is not due to histamine release by MCs but, rather, to production of the vasodilatory agent NO, in keeping with its effect in the coronary system. The above results are summarized in the diagrams A and B in FIG. 4.
The degree of inhibition was the function of the dose of relaxin being used.

The test system of the next assay is BASM cells. Description: Bovine aorta smooth muscle (BASM) cells cultured in vitro: actin cytoskeleton and intracellular cGMP. Particulars: for increase in intracellular cGMP levels: BASM cells. Format: cell-based. An excerpt:
1-b Smooth muscle cells of the vascular wall obtained from bovine aorta (BASM) and cultured in vitro are a suitable in vitro model for understanding the mode of action of RLX on blood vessels.
[…] RLX caused a striking concentration-related increase in intracellular cGMP levels (400% and 900% over the values of the untreated cultures).

The test system of assay [3] is isolated platelets from human volunteers and rabbits. The experiment in a line: Aggregation of isolated platelets incubated with RLX and stimulated with proaggregants. Format: cell-based, human and rabbit. Here is the method:
A first series of experiments was carried out on isolated platelets from human volunteers and rabbits, incubated with RLX and then stimulated with proaggregants.
This effect was concentration-relatedand attained a maximum of 80% inhibition with 100 ng/mL RLX.

The next assay relates to male rats. The experiment in a line: Plasma hemostasis factors, circulating platelets and megacaryocytes in male rats injected intraperitoneally with RLX. Format: in vivo, rat. As to the method:
A second series of experiments was performed in male rats injected intraperitoneally with RLX and sacrificed 20 minutes later. Before sacrifice, blood and plasma samples were collected for studying plasma hemostasis factors and number of circulating platelets; upon sacrifice, spleen specimens were taken for studying the morphology of megacaryocytes.

For another assay, the system named is atrial myocardiocytes. Description: ANP secretion from atrial myocardiocytes of rats after intraperitoneal RLX. The format is in vivo, rat. Here is the method:
3-a ANP secretion was studied in rats following intraperitoneal administration of 10 μg RLX. It is known that atrial myocardiocytes have an endocrine function, being able to synthesize and release a peptide, called atrial natriuretic peptide (ANP) that, besides its firstly recognized effect in stimulating natriuresis, has other properties such as a negative action on blood pressure due to a decrease in the vascular tone and a shift of the plasma fluid in the interstitial compartment. A possible relationship has therefore been searched for between RLX and ANP by evaluating the amount of immunoreactive ANP and the ultrastructural features of atrial myocardiocytes of rats upon RLX treatment. […] No appreciable changes were found in the extension of the ergastoplasm and Golgi apparatus. […] Determinations of ANP content in rat atria homogenates by RIA before and after in vivo administration of RLX are in agreement with the EM findings.

The test system of another assay is heart atria. Particulars: Osheroff et al.; cited from earlier work.
The test system of assay [4] is rat hearts, isolated and perfused in vitro. The experiment in a line: Coronary flow in isolated rat hearts perfused in a Langendorff apparatus. Particulars: RLX 30 ng/ml in perfusion fluid for 20 minutes or as bolus into the aortic cannula; rat heart (FIG. 1A). Here is the method: as §1
The test system of assay [5] is perfused guinea pig hearts. The experiment in a line: Nitric oxide (nitrite) production and histamine release in perfused guinea pig hearts. Here is the method: To clarify the mechanisms of action of RLX on dilation of coronary vessels, nitric oxide (NO) production and histamine release were assayed in the perfused guinea pig hearts. NO, which is known to be a powerful vasodilatory agent, was measured by determination of nitrites (stable end-products of NO metabolism) in the perfusates. In some experiments, N^W -monomethyl L-arginine (MeArg), a NO-synthase inhibitor, was added to the perfusion fluid before giving RLX as a bolus; in other experiments,guinea pigs were pretreated with E.coli lipopolysaccharide (LPS), an inducer of NO-synthase activity before heart isolation and perfusion. […] This was further confirmed by the experiments with MeArg and LPS, drugs that blunted and enhanced the RLX-induced increase in the coronary flow, respectively (FIG. 2).

Assay [6] can be described thus: Blood osmolality and sodium concentration in rats after RLX. Format: in vivo, rat. Conditions: rats after RLX (from 142±4 before).
The subject of a further assay is deep artery of the penis. The experiment in a line: Blood flow in the deep artery of the penis by echo-doppler after injection into the cavernous bodies. Format: in vivo, human. Here is the method: 1-d The blood flow in the penis is influenced by local NO production. Based on the ability of RLX to stimulate NO synthesis, the effect of the peptide on the blood flow in the deep artery of the penis was investigated. RLX (sterilized by microfiltration) was injected into the cavernous bodies of 4 human normal volunteers at a dose of 10 ng, and the blood flow measured by an echo-doppler Acuson 128, 1-6 minutes after the injection. […] In FIG. 5 the echo-doppler images are reported, showing the flow under normal conditions (diagram A), 1 min. after RLX injection (diagram B) and 5 min. after RLX injection (diagram C).

The nature of assay [7]: Cholesterol and triglycerides in peripheral blood serum. Particulars: peripheral blood serum after RLX administration. The format is in vivo.
The subject of assay [8] is mesenteric artery of spontaneously hypertensive rats. Conditions: two days infusion; cited from earlier work.

Entries after “also recorded” stand apart in the source; their conditions may differ. No end group written: not given here. Where only a bound is given, the exact number is not on record here.

With `CNC(=N)NCCC[C@H](N)C(=O)O` [MeArg, N^W -monomethyl L-arginine, reference compound], the “effect on the RLX-induced increase in the coronary flow” value in assay [1] (MeArg added to perfusion fluid before RLX bolus, LPS pretreatment of guinea pigs before heart isolation) is listed as “blunted”. Besides, in assay [2] (mast cells), the “effect on the RLX-induced depression of histamine release evoked by calcium ionophore” value is given as “prevented”. Also, the “effect on the RLX-induced increase in cGMP” value with BASM cells (pretreatment of BASM cells) is listed as “depression”.

Consider relaxin [RLX], for which the coronary flow entry in [1] (RLX 30 ng/ml in perfusion fluid for 20 minutes or as bolus into the aortic cannula, guinea pig heart (FIG. 1B)) is recorded as “increases significantly”. For the same compound, the “maximum inhibition of platelet aggregation induced by proaggregants” value in assay [3] (100 ng/mL RLX) was found to be 80%. Besides, the “thromboxane production in platelets” value in assay [3] (FIG. 7) is listed as “inhibition of thromboxane production”. For the same compound, the “endogenous NO synthesis in platelets” value in [3] (FIG. 8) is listed as “stimulation of endogenous NO synthesis”. In addition, the “intracellular cGMP in platelets” value in assay [3] (FIG. 9) is on record as “rise in intracellular cGMP”. Besides, the “cytosolic Ca2+ in platelets” value in [3] (FIG. 10) is “decrease of cytosolic Ca^2+”. Also, the “platelet ultrastructure during aggregation” value in [3] (ultrastructural examination) was “hinders the conformational modifications and granule exocytosis”. In the assay with male rats (rat plasma, RLX-Treated), the “F 1 + 2” value was found to be 0.028 ± 0.01 nM/mL, the PT amounted to 15.1 ± 0.5 s, the aPTT turned out to be 19 ± 2.5 s and the “tPA Ag” value is 0.52 ± 0.1 ng/mL. Further, in the assay with male rats (rat plasma, RLX-Treated, 20 minutes after intraperitoneal injection), the Fibrinogen is 185 ± 26 mg/dL. Also, in the assay on male rats (rat plasma, RLX-Treated, P < 0.001), the tPA activity is 0.37 ± 0.03 U/mL. The same compound yielded a PAI-1 activity in the assay on male rats (rat plasma, RLX-Treated, P < 0.05) of 11.7 ± 0.7 U/mL. Further, in the assay with male rats (rats), the “coagulation factors such as fibrinogen and prothrombin fragments F1+2” value is “slight decrease”; the “plasma levels of tPA and PAI-1” value is recorded as “significant, concentration-dependant increase”. Further, the “number of circulating platelets” value with male rats (rats, in vivo) is “reduction in the number of circulating platelets”. Besides, the “amount of immunoreactive ANP and number of ANP-storing granules in atrial myocardiocytes” value in the assay with atrial myocardiocytes (rats, 10 μg RLX intraperitoneal, twenty minutes after administration) is “strongly decreased”. Moreover, the “secretion of ANP from the atriocytes” value in the assay on atrial myocardiocytes (summary statement) is on record as “inhibit or, depending on the dose, totally suppress”. Moreover, the “decrease of the rise in intracellular Ca2+ levels evoked by calcium ionophore” value in assay [2] (10 ng/mL RLX, mast cells) was 41%. Also, the “decrease of the rise in intracellular Ca2+ levels evoked by calcium ionophore” value in assay [2] (100 ng/mL RLX, mast cells) worked out at 97%. For the same compound, the MC degranulation entry in [2] (mast cells) was “inhibits”. In addition, the “calcium-ionophore-induced and anaphylactic histamine release” value in assay [2] was “inhibits”. Also, the “calcium-ionophore-induced and anaphylactic histamine release” value in assay [2] (listed as relaxin) is reported as “inhibit or, depending on the dose, totally suppress; also recorded: greatly inhibiting”. Also, the “basal liberation of histamine by mastocytes” value in assay [2] (unstimulated mastocytes) is reported as “no effect whatsoever”. The “increase in intracellular cGMP levels” value in the assay with BASM cells (10 ng/mL RLX for 1 hour) is reported as 400 % over the values of the untreated cultures. For the same compound, in the assay on BASM cells (100 ng/mL RLX for 1 hour), the “increase in intracellular cGMP levels” value is listed as 900 % over the values of the untreated cultures. Besides, the “actin cytoskeleton (immunocytochemistry with anti-actin antibodies)” value with BASM cells (BASM cells incubated for 4 hours with 100 ng/mL RLX) is reported as “induces changes in the actin cytoskeleton”. Moreover, in the assay with heart atria, the “binding to heart atria” value was “binding of RLX to heart atria”; the “rhythm and contractions of the in vitro isolated atria” value was “increase of the rhythm and contractions”. In assay [4], the coronary flow result is “increases significantly”. In addition, the “amount of histamine in the perfusates” value in [5] is recorded as “significantly reduced”. Also, in assay [5] (versus basal value), the “nitrite amounts in the perfusates (NO production)” value was “two-fold increase over the basal value”. The sodium concentration in assay [6] was 136±2 mEq/1. In addition, in the assay with deep artery of the penis (10 ng into the cavernous bodies, 4 human normal volunteers, 1-6 minutes after injection, versus basal flow), the “blood flow in the deep artery of the penis” value is recorded as “striking increase”. The erection entry with deep artery of the penis (two subjects, 5-10 min. after RLX injection) is “erection was also observed”. For the same compound, in [7], the “reduction of cholesterol concentration” value is given as “up to 38%” and the “reduction of triglycerides concentration” value is given as not above 55%.

For “rat RLX: rat relaxin infused for two days in a cited 1989 study (Relaxin B chain RVSEEWMDQVIQVCGRGYARAWIEVCGASVGRLAL; Relaxin A chain QSGALLSEQCCHIGCTRRSIAKLC; ends and bridges not checked; cysteine pairing not given here; UniProt P01347 23-57; P01347 163-186, looked up)”, the “vasoconstrictive effects of norepinephrine and vasopressin” value in assay [8] is recorded as “blunted”.

Source of the values: US5952296A, “Method of using relaxin as therapeutic or preventing agent” (priority 1993, dated 1999).
